Experimental data published in patent US20240108684A1, “DOSING REGIMENS FOR TREATMENT OF FUNGAL INFECTIONS” (priority 2016, published 2024).
≈ marks a conversion by molar mass, not a printed value. Read-outs that look alike come from different tables or passages of the source. *1 amine or outer side, *2 acyl side, *3 side chain or, on linkers, in order; H or OH if unused. Where a SMILES comes first, the peptide text is derived from it. Bridges are numbered along the chain shown (N, C = ends). [ ]: non-standard residue; d: D form. The star is where a group is joined. hTyr(3S-OH,4S-OH,3'-OSO3H) = N[C@H](C(=O)O)[C@H](O)[C@@H](O)c1ccc(O)c(OS(=O)(=O)O)c1; Orn(4R-OH,5R-OH) = O=C([C@H](C[C@@H](O)[C@@H](O)N[*:3])N[*:1])[*:2]; Pro(3S-OH,4S-Me) = C[C@H]1CN[C@H](C(=O)O)[C@H]1O; X1 = CCCCCOc1ccc(-c2cc(-c3ccc(C(=O)*)cc3)no2)cc1; Gln(3R-OH) = NC(=O)C[C@@H](O)[C@H](N)C(=O)O; Hyp = O=C(O)[C@@H]1C[C@@H](O)CN1

Legend:
[1] = test system: azole-resistant C. albicans R357 strain; assay: MIC and CLSI susceptibility, azole-resistant C. albicans R357; format: cell-based, Candida albicans; conditions: for Susceptibility of strain R357 in words: C. albicans R357 isolated from human blood
C. auris isolates = assay: Candida auris antifungal susceptibility testing (AFST), CLSI M27-A3; format: cell-based
C. albicans (R357) = assay: Disseminated infection model with C. albicans R357, kidney fungal counts; format: in vivo, ICR mice
[2] = test system: Aspergillus fumigatus (ATCC 13073); assay: Neutropenic mouse model of aspergillosis, survival; format: in vivo, mice; conditions: 2 mg/kg IP one dose; 10 days; P<0.05
[3] = Solubility of test articles in vehicle, visual observation; conditions: WFI; 2 mg/mL
Protocol: Amphotericin B and fluconazole were in powder form. Amphotericin B was dissolved in 0.9% NaCl. Fluconazole was dissolved in water (WFI: water for injection).

| SMILES | Susceptibility of strain R357 in words [1] | MIC ([1]; Candida albicans) | Susceptibility (CLSI) ([1]; C. albicans R357) | Number of resistant C. auris isolates (C. auris isolates; of 38 isolates) | also measured |
| --- | --- | --- | --- | --- | --- |
| CC[C@@H]([C@H](C)O)n1ncn(-c2ccc(N3CCN(c4ccc(OC[C@@H]5CO[C@@](Cn6cncn6)(c6ccc(F)cc6F)C5)cc4)CC3)cc2)c1=O [Posaconazole, posaconazole] | resistant | > 64 µg/mL | – | – | – |
| C[C@@H](c1ncncc1F)[C@](O)(Cn1cncn1)c1ccc(F)cc1F [Voriconazole, voriconazole] | resistant | > 64 µg/mL | R | – | – |
| CC[C@H](C)C[C@H](C)CCCCCCCCC(=O)N[C@H]1C[C@@H](O)[C@@H](NCCN)NC(=O)[C@@H]2[C@@H](O)CCN2C(=O)[C@H]([C@H](O)CCN)NC(=O)[C@H]([C@H](O)[C@@H](O)c2ccc(O)cc2)NC(=O)[C@@H]2C[C@@H](O)CN2C(=O)[C@H]([C@@H](C)O)NC1=O [Caspofungin, caspofungin] | – | – | S | 4 | MIC ([1]; Candida albicans, C. albicans R357, endpoint 50% inhibition, read-out: MIC): 0.25 µg/mL (≈ 0.229 µM); Breakthrough at 48 h (C. auris isolates; C. auris strains): most strains breakthrough |
| CCCCCOc1ccc(-c2cc(-c3ccc(C(=O)N[C@H]4C[C@@H](O)[C@@H](O)NC(=O)[C@@H]5[C@@H](O)[C@@H](C)CN5C(=O)[C@H]([C@H](O)CC(N)=O)NC(=O)[C@H]([C@H](O)[C@@H](O)c5ccc(O)c(OS(=O)(=O)O)c5)NC(=O)[C@@H]5C[C@@H](O)CN5C(=O)[C@H]([C@@H](C)O)NC4=O)cc3)no2)cc1 [MICA, micafungin] (X1-[Orn(4R-OH,5R-OH)]T[Hyp][hTyr(3S-OH,4S-OH,3'-OSO3H)][Gln(3R-OH)][Pro(3S-OH,4S-Me)]; lactam 1-C) | – | – | – | – | Number of resistant C. auris isolates (C. auris isolates): 4 |
| C[C@@H]1[C@H](O)[C@@H](C)/C=C/C=C/C=C/C=C/C=C/C=C/C=C/[C@H](O[C@@H]2O[C@H](C)[C@@H](O)[C@H](N)[C@@H]2O)C[C@@H]2O[C@](O)(C[C@@H](O)C[C@@H](O)[C@H](O)CC[C@@H](O)C[C@@H](O)CC(=O)O[C@H]1C)C[C@H](O)[C@H]2C(=O)O [Amphotericin B, amphotericin B] | susceptible | – | S | – | MIC ([1]; C. albicans R357, endpoint 100% inhibition): 0.5 µg/mL (≈ 0.541 µM); Reduction in fungal counts (C. albicans (R357); 3 mg/kg IV, 72 hr): two log reduction; Antimicrobial effect versus vehicle (kidney fungal counts) (C. albicans (R357); 1 and 3 mg/kg IV once, 48 and 72 hr after infection): Significant effects; Survival versus vehicle [2]: significantly longer survival than vehicle |
| OC(Cn1cncn1)(Cn1cncn1)c1ccc(F)cc1F [Fluconazole, fluconazole] | resistant | > 64 µg/mL | R | 38 | Reduction in colony counts compared to vehicle (C. albicans (R357); 20 mg/kg PO, 48 hr after infection): 51%; Reduction in colony counts compared to vehicle (C. albicans (R357); 20 mg/kg PO, 72 hr after infection): 84%; Statistical significance of reduction versus vehicle (C. albicans (R357); 20 mg/kg PO, one-way ANOVA, Dunnett's test (P>0.05)): not significant; Solubility [3]: S |
